The values below come from patent US11453679B2, “Methyl 2-methyl-5-oxo-1,4,5,7-tetradhydrofuro[3,4-b]pyridine-3-carboxylate compounds as Cav1.2 activators” (Novartis AG, priority 2020, dated 2022).

Like-named read-outs stand apart in the source and are kept apart here.

The target of series [1] is T1, human Cav1.2 (Homo sapiens, UniProt Q13936). Briefly: Sophion QPatch whole-cell voltage clamp dose-response assay, Cav1.2-HEK293(AUX) cell line (barium currents). Particulars: for QPatch Emax: maximal fold change of peak inward current; for EC50: QPatch EC50, 6-point dose response, 20-ms pulses from −80 mV to 0 mV, n = 1 unless marked (* n = 2, # n = 3). In general terms: In patch-clamp work, channel activity is measured electrically.
T1 sequence (Q13936 whole entry): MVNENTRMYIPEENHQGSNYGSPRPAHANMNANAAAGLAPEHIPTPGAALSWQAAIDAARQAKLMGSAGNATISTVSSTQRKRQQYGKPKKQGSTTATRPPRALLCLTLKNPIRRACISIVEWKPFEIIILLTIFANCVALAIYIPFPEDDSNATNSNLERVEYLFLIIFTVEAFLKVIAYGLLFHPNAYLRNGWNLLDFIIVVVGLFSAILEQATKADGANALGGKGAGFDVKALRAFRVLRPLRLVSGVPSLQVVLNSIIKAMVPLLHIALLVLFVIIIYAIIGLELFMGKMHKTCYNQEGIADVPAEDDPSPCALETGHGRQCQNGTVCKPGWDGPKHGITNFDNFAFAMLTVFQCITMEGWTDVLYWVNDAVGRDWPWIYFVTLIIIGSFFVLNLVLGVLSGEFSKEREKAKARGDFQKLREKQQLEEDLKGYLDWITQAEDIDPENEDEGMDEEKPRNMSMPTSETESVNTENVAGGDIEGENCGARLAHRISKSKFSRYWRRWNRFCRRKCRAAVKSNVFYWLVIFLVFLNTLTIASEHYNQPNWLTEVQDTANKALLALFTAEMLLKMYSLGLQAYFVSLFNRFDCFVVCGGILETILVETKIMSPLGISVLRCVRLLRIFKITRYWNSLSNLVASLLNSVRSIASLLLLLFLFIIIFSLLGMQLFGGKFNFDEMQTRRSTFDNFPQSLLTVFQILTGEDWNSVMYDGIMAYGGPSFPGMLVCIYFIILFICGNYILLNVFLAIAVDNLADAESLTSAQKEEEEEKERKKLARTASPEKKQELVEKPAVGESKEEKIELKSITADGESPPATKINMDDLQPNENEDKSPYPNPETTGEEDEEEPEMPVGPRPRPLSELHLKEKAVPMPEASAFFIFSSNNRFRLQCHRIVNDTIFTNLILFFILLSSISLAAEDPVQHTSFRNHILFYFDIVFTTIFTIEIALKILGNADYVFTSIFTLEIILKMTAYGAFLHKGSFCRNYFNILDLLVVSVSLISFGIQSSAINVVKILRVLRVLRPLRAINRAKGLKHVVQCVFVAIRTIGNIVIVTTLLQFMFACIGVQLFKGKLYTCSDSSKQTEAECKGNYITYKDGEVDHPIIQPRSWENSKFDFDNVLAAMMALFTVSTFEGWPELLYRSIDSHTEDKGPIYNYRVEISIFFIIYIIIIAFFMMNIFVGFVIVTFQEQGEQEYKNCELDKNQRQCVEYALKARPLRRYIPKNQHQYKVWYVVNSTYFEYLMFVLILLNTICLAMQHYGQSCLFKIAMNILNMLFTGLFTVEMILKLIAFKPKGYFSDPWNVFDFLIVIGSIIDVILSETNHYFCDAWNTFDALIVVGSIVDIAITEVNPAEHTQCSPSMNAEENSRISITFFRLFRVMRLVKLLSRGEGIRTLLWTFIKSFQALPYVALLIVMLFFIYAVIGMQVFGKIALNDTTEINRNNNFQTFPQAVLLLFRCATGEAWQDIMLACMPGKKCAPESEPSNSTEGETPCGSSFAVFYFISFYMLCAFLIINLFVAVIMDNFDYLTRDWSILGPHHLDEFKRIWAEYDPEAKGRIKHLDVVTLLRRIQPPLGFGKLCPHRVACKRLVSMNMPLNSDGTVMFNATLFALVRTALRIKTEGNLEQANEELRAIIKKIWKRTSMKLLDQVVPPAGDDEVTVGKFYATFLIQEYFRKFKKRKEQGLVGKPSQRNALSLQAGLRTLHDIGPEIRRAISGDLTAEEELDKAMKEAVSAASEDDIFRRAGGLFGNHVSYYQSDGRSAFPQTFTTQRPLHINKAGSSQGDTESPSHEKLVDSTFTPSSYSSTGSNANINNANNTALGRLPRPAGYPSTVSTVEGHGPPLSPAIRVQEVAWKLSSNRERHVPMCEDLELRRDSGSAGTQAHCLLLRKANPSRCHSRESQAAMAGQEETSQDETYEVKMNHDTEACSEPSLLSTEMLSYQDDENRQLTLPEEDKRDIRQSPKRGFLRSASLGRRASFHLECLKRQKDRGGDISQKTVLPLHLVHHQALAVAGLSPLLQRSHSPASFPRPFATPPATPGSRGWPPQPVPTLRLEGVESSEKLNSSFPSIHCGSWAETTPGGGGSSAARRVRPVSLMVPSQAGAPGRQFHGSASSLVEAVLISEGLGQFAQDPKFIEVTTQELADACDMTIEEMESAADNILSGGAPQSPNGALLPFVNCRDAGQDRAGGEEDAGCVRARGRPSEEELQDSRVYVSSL
T1 sequence (Q9NY47 19-1001 partner limits assumed): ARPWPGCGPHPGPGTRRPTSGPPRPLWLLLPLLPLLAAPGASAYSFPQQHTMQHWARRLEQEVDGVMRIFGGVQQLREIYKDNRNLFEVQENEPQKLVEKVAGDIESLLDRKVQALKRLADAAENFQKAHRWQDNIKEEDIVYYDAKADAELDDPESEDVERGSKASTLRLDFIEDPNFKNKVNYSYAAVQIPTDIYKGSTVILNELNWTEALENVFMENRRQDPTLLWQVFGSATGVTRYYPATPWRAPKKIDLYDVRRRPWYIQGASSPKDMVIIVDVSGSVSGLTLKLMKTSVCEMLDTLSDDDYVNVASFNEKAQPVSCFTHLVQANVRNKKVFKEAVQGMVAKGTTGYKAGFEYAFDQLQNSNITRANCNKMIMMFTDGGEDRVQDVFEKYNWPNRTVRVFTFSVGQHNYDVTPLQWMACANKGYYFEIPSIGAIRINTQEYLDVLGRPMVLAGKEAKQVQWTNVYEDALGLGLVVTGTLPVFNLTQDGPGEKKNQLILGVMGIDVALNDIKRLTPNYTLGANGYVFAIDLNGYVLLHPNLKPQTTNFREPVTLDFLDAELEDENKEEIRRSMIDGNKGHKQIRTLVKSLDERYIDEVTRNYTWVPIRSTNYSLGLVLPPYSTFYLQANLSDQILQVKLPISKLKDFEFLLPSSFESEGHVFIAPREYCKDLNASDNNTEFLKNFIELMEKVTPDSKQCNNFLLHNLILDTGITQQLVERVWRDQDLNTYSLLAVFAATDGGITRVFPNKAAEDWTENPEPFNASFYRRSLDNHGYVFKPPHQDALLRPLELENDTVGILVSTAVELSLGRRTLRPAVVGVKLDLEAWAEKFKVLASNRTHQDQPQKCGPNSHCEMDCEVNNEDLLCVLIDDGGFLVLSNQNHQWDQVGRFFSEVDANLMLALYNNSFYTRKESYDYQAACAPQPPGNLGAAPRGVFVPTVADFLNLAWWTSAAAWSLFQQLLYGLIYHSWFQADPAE
T1 sequence (Q9NY47 1002-1150 partner limits assumed): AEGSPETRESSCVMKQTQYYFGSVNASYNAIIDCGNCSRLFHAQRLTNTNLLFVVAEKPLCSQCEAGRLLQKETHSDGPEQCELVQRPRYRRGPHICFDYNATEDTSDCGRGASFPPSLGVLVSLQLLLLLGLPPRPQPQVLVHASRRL
T1 sequence (Q08289 whole entry partner): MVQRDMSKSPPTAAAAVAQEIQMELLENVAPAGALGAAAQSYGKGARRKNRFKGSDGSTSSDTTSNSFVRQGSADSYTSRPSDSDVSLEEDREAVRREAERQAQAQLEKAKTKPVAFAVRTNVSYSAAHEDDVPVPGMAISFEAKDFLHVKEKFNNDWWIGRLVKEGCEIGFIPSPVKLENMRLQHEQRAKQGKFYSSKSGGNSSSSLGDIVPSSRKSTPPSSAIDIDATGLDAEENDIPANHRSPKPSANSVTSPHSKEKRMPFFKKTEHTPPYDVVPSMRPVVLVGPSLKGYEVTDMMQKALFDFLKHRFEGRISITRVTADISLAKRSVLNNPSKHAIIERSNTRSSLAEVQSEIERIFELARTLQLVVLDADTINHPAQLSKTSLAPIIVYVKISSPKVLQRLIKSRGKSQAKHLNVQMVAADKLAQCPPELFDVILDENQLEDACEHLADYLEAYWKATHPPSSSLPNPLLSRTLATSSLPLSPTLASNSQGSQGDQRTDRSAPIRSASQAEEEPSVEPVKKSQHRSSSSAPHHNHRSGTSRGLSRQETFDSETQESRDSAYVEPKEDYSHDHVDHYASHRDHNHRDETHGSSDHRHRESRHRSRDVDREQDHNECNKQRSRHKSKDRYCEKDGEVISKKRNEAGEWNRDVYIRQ
Method: (§1) 24 hours prior an electrophysiology experiment, doxycycline (1 μg/ml) was added to the growth medium (Table 1), and 25 μM of verapamil was co-applied to prevent calcium influx triggered cell death. Cell confluency should reach 70%-80% right before the experiment.
(§2) To harvest cells (from a T175 cm^2 flask as an example), growth media were removed completely, and the cells were rinsed with 10 mL of D-PBS. D-PBS was aspirated, and 10 mL of Detachin (Genlantis) was added and the plate was placed in a 37° C. incubator for 10 minutes. Detached cells were placed into a 15 mL conical tube and spun at 1000 rpm for 2 minutes. Supernatant was removed, and cells were re-suspended in QPatch complete media (Table 2) to desired cell density of 1.5-3 million cells per QPatch run. Each experimental run uses 1.5 mL of cells.
(§3) The cells suspension was taken to the Sophion QPatch platform that uses whole-cell voltage clamp to measure barium currents conducted through Cav1.2 on single-hole QPlates. […] A dose-response assay protocol was used to determine the maximal fold change of peak inward current (Emax) and potency (EC50) of each compound. The protocol had eight liquid periods. The first liquid period was to stabilize current amplitude, which was monitored using repetitive 200-ms voltage pulses stepping from −80 mV to 0 mV. The second liquid period was to determine baseline current amplitude in the presence of vehicle control, using a single 20-ms voltage pulse stepping from −80 mV to 0 mV. The third through eighth liquid periods were used to ascertain a 6-dose response to compound treatments, also using single 20-ms voltage pulses stepping from −80 mV to 0 mV. The EC50 was generated using the following equation Iconcentration=Ibase+(Ifull−Ibase)*c^n/(XC50^n+c^n), where c is the concentration and n is the Hill coefficient constant. Ifull is the maximal current achievable, and Ibase is 0.

For series [2], the target named is T1, human Cav1.2.
Method: as §1, §2, §3
The conditions of series [3]: mouse, in vivo, ip.
Method: (§4) Compound administration and brain tissue collection. Wild-type C57BL/6J male mice were obtained from Jackson laboratories (Bar Harbor, Me.). The acute, single-dose effects of Cav1.2 activators of the present disclosure were evaluated in male eight-week old mice (n=6 mice per compound). Each compound was dissolved in 10% PEG300, 10% Solutol, 10% Cremophore EL, and 70% Phosphate Buffered Saline and administered intraperitoneal (i.p.) at a concentration of 1 mg/kg up to 30 mg/kg depending on the compound. Animals were euthanized one hour after compound administration via exsanguination under deep anesthesia. Blood was collected in EDTA tubes for downstream analysis of drug levels. Brains were rapidly removed from the skull, and the cerebral cortex and cerebellum were regionally dissected. Cerebellar samples were snap frozen in liquid nitrogen to assess compound exposure.
(§5) Quantification of compound exposure. Cerebellar tissue samples were homogenized in 4 mL of 20% acetonitrile and 80% Phosphate buffered saline for every 1 g of tissue (5× dilution). Tissue was homogenized using either of the following three methods: hand held probe system, TissueLyser system with 5 mm steel bead at a frequency of 30 s^−1 for 4 min, or OMNI Bead Ruptor Elite homogenizer for 30 seconds to 1 minute depending on tissue type. Tissue samples were added to a 96-well plate (12.5 μL sample) and processed for quantification by mass spectrometry.
Another series has as its system cFos mRNA. In words: cFos mRNA induction in cortex of wild-type mice (quantitative PCR). The class given is in vivo, C57BL/6J male mice. Particulars: one hour after administration. As for the experimental part:
Compound administration and brain tissue collection.
Quantification of cFos mRNA induction. Tissue homogenization was performed using TissueLyser system for 96 well plates (Qiagen). First, frozen cortical samples were thawed, removed from RNAlater, and placed into TissueLyser tubes along with Buffer RLT containing 0.5% Reagent DX and one 5 mm TissueLyser metal bead. The TissueLyser tubes were loaded into a TissueLyser II tissue homogenizer for 3 rounds of homogenization, with each round lasting 5 minutes at 30 Hz bead-beating frequency. Total RNA was purified from the homogenate using RNeasy 96 Plus kit (Qiagen), RNA concentration and A260/A280 ratio were quantified via the Nanodrop (ThermoFisher), and all samples were normalized to 100 ng/μl concentration. RNA was reverse transcribed into cDNA using the Superscript III First-strand synthesis SuperMix Kit (ThermoFisher). For each sample, 6 μl of RNA (600 ng total) was mixed with 1 μL of Oligo dT and 1 μL of annealing buffer and heated to 65° C. for 5 minutes. Next, 10 μL of 2× First-Strand Reaction Mix and 2 μL of the Enzyme mix were added to achieve a total reaction volume of 20 μL. The samples were heated to 50° C. for 50 minutes then 85° C. for 5 minutes to complete cDNA synthesis.
Quantitative PCR was performed on the cDNA samples using Quantitect Multiplex RT-PCR kit (Qiagen) in a 384-well assay format. Each PCR well contained 2 μL of cDNA (60 ng total), 10 μL of RT-PCR mastermix, 1 μL of cFos FAM Taqman probe (Mm00487425_m1 (FAM) #4351368), 1 μL of GAPDH VIC Taqman probe (Mm99999915-g1 (VIC) #4448486), 0.2 μL of Multiplex RT mix and 5.8 μl of RNase-free water. On the ViiA7 Real-Time PCR system (ThermoFisher), the samples were heated to 95° C. for 15 minutes then cycled between 94° C. for 45 seconds and 60° C. for 45 seconds for 45 cycles. cFos Ct values were exported, normalized to GAPDH Ct values, and converted to relative fold change in expression using the delta-delta Ct relative quantification method. cFos fold changes between compound treatments and vehicle were analyzed by one-way ANOVA, followed by Tukey's post-hoc comparisons.

Series [4] concerns the target T1, human Cav1.2. Briefly: QPatch channel biophysics assay (current-voltage relationship, V1/2, tau of inactivation), Cav1.2-HEK293(AUX) cell line. The class given is cell-based. On the set-up: expressed in transfected cells; host or cells: Flp-In 293 T-Rex (HEK293), clone 2-19B, stably transfected with pCMV6-entry-CACNA1C and pcDNA5H/FRT-TO-CACNA2D2-FCS-P2A-CACNB2. To be noted: shift of half-way channel activation voltage (V1/2). As for the experimental part: Clonal isolation was achieved under Neomycin selection.
Each experimental run uses 1.5 mL of cells.
The protocol had eight liquid periods. […] The protocol had four liquid periods.

Series [5] can be described thus: Compound exposure in wild-type mice (cerebellum and blood, mass spectrometry). Particulars: male, C57BL/6J, mouse, brain (cerebellum) and whole blood, ip.
Method: as §4, §5

As a reminder, the EC50 is the midpoint of the concentration-response curve. A lower EC50 goes with an effect from little substance. In the case of `COC(=O)C1=C(C)NC2=C(C(=O)OC2)[C@H]1c1cccc(F)c1C1CC1(F)F` (single isomer, unassigned) [Example 2, Methyl (S)-4-(2-((S or R)-2.2-difluorocyclopropyl)-3-fluorophenyl)-2-methyl-5-oxo-1,4,5,7-tetrahydrofuro[3,4-b]pyridine-3-carboxylate], the “QPatch Emax” value on human Cav1.2 [1] stood at 1.6. Also, the 50% effective concentration (EC50) on human Cav1.2 [2] was 170 nM. Also, the “Brain:blood ratio” value in series [3] came to 3.4. Further, in the series with cFos mRNA, the “% ↑cFOS mRNA cortex (3 mg/kg ip)” value stood at 23% and the “% ↑cFOS mRNA cortex (10 mg/kg ip)” value is reported as 203%. Further, on human Cav1.2 [4], the Biophysics voltage shift is recorded as −1.9 mV.
As a reminder, the Kp is tissue or fluid exposure divided by exposure in the circulation. For the compound `CCc1c(F)cccc1[C@H]1C(C(=O)OC)=C(C)NC2=C1C(=O)OC2` (single isomer, unassigned) [Example 13], at human Cav1.2 [1], the concentration giving a half-maximal response (EC50) is 220 nM and the “QPatch Emax” value is recorded as 1.5. Moreover, in the series with cFos mRNA, the “% ↑cFOS mRNA cortex (3 mg/kg ip)” value is given as 165% and the “% ↑cFOS mRNA cortex (10 mg/kg ip)” value is 281%. This compound also registered a Kp at 1 h in series [5] of 1. Further, the Biophysics voltage shift at human Cav1.2 [4] is −4.8 mV.
For the compound `COC(=O)C1=C(C)NC2=C(C(=O)OC2)[C@H]1c1cc(F)cc(F)c1C1CC1` (single isomer, unassigned) [Example 14], on human Cav1.2 [1], the midpoint of the response, the EC50, lay at 65 nM and the “QPatch Emax” value is given as 1.8. Further, in the series with cFos mRNA, the “% ↑cFOS mRNA cortex (3 mg/kg ip)” value was found to be 228% and the “% ↑cFOS mRNA cortex (10 mg/kg ip)” value came out at 364%. Besides, in series [5], the Kp at 1 h turned out to be 1.7. The Biophysics voltage shift on human Cav1.2 [4] is on record as −1.9 mV.
In the case of `COC(=O)C1=C(C)NC2=C(C(=O)OC2)[C@H]1c1cccc(F)c1C(C)C` (single isomer, unassigned) [Example 15], on human Cav1.2 [1], the concentration giving a half-maximal response (EC50) came to 50 nM and the “QPatch Emax” value was determined as 2. In addition, in the series with cFos mRNA, the “% ↑cFOS mRNA cortex (3 mg/kg ip)” value stood at 169%. Further, the concentration ratio (Kp) at 1 h in series [5] was 1.3. Further, the Biophysics voltage shift on human Cav1.2 [4] is recorded as −6.6 mV.
Regarding `C=C(c1c(F)cc(F)cc1[C@H]1C(C(=O)OC)=C(C)NC2=C1C(=O)OC2)C(F)(F)F` (single isomer, unassigned) [Example 19], at human Cav1.2 [1], the EC50 was 12 nM and the “QPatch Emax” value amounted to 1.7. Moreover, the “% ↑cFOS mRNA cortex (3 mg/kg ip)” value in the series with cFos mRNA was 138%. Moreover, the concentration ratio (Kp) at 1 h in series [5] was determined as 2.9. The Biophysics voltage shift on human Cav1.2 [4] is recorded as −1.8 mV.
For `C=C(c1c(F)cccc1[C@H]1C(C(=O)OC)=C(C)NC2=C1C(=O)OC2)C(F)(F)F` [Example 16, (S)-methyl 4-(3-fluoro-2-(3,3,3-trifluoroprop-1-en-2-yl)phenyl)-2-methyl-5-oxo-1,4,5,7-tetrahydrofuro[3,4-b]pyridine-3-carboxylate] the same measures were 4 nM, 1.5, 121%, 0.6 and −3.3 mV.
